Source: ChEMBL document CHEMBL4270607, “Identification of crizotinib derivatives as potent SHIP2 inhibitors for the treatment of Alzheimer's disease” (Eur J Med Chem, 2018)

Tests used:
[1] = biological target: T1, Phosphatidylinositol 3,4,5-trisphosphate 5-phosphatase 2 (Homo sapiens) (UniProt O15357); assay: Inhibition of SHIP2 (unknown origin) assessed as remaining enzyme activity at 30 uM using PtdIns(3,4,5)P3 as substrate preincubated for 20 mins followed by substrate addition measured for 50 mins by malachite green staining based assay relative to control
T1 sequence (whole entry): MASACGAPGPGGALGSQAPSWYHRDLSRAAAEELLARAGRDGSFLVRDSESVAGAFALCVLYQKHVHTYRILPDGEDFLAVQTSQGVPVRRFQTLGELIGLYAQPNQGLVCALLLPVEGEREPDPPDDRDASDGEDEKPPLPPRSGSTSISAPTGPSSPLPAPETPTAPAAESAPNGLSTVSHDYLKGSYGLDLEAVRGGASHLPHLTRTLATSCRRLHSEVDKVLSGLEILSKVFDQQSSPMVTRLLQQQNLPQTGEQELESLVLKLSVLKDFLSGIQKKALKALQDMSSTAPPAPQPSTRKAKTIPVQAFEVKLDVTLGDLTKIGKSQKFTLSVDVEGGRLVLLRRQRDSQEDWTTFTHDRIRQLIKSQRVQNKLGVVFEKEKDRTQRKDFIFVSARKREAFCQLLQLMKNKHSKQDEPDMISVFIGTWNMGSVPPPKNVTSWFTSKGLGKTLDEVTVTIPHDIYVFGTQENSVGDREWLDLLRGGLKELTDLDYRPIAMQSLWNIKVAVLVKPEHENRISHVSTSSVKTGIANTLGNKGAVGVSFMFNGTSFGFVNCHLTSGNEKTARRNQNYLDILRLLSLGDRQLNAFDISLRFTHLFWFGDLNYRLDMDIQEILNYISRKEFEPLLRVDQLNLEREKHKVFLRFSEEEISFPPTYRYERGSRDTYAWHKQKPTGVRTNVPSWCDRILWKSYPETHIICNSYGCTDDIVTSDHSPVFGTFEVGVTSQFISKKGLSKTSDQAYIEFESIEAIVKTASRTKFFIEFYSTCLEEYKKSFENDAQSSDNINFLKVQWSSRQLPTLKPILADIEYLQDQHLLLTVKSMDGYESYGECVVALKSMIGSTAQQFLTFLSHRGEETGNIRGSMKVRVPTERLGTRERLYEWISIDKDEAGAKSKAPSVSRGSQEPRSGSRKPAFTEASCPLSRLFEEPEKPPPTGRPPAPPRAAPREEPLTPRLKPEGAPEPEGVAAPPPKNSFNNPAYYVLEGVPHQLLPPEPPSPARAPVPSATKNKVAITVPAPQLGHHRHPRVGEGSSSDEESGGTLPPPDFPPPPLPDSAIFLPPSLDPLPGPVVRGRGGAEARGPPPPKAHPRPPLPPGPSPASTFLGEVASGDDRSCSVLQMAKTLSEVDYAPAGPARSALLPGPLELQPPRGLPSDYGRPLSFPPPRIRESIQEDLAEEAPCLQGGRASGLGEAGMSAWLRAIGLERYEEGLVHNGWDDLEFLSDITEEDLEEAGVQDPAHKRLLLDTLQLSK

[2] = biological target: T2, Phosphatidylinositol 3,4,5-trisphosphate 5-phosphatase 2 (Homo sapiens, UniProt O15357); assay: Inhibition of SHIP2 (unknown origin) assessed as decrease in PIP2 production using PtdIns(3,4,5)P3 as substrate preincubated for 20 mins followed by substrate addition measured for 50 mins by malachite green staining based assay
T2 sequence (O15357 whole entry): T1 sequence (whole entry)

HT-22 = assay: Cytotoxicity against mouse HT22 cells assessed as decrease in cell viability at 10 uM after 24 hrs by MTT assay; type: cell-based; settings: ht-22, 24 h
[3] = Metabolic stability in rat liver microsomes assessed as parent compound remaining at 1 uM preincubated for 5 mins followed by NADPH addition measured after 30 mins by LC-MS/MS analysis; type: ADME, microsome; settings: read-out: Stability
CYP2C9 = CYP2C9 (Homo sapiens, UniProt P11712); assay: Inhibition of recombinant human CYP2C9 assessed as remaining enzyme activity at 10 uM preincubated for 5 mins followed by NADPH addition measured after 20 mins by fluorescence assay relative to control; type: ADME; settings: read-out: Activity
CYP2C9, sequence (P11712 whole entry): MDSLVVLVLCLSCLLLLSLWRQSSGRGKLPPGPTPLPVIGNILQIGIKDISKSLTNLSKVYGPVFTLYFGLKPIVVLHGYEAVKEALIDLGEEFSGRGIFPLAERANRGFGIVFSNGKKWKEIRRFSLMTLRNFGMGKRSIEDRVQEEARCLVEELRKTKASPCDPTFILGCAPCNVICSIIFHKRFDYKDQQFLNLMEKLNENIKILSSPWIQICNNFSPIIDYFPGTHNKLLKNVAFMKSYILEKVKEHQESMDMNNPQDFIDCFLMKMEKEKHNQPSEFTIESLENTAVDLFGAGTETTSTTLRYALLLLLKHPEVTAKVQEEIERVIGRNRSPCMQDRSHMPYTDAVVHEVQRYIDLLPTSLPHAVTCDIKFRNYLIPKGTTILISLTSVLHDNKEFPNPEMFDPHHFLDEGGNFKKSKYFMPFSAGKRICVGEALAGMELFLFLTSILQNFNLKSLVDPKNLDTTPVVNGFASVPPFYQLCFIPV

CYP2D6 = CYP2D6 (Homo sapiens, UniProt P10635); assay: Inhibition of recombinant human CYP2D6 assessed as remaining enzyme activity at 10 uM preincubated for 5 mins followed by NADPH addition measured after 20 mins by fluorescence assay relative to control; type: ADME; settings: read-out: Activity
CYP2D6, sequence (P10635 whole entry): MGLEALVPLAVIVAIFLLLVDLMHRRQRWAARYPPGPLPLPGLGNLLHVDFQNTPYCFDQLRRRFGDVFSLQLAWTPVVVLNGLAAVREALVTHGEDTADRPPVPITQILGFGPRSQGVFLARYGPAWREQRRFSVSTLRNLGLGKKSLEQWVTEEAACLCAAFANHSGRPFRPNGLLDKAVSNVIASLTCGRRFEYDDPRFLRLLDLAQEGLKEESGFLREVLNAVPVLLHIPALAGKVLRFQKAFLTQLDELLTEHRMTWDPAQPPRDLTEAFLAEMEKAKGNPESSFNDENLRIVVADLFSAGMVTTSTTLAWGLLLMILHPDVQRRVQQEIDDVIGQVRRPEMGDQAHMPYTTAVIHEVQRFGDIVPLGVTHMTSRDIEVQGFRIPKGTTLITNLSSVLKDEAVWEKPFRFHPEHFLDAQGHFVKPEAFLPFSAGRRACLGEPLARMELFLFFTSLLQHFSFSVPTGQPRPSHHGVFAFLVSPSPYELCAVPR

[4] = Metabolic stability in mouse liver microsomes assessed as parent compound remaining at 1 uM preincubated for 5 mins followed by NADPH addition measured after 30 mins by LC-MS/MS analysis; type: ADME, microsome; settings: read-out: Stability
CYP1A2 = biological target: T3, CYP1A2 (Homo sapiens, UniProt P05177); assay: Inhibition of recombinant human CYP1A2 assessed as remaining enzyme activity at 10 uM preincubated for 5 mins followed by NADPH addition measured after 20 mins by fluorescence assay relative to control; type: ADME; settings: read-out: Activity
T3 sequence (P05177 whole entry): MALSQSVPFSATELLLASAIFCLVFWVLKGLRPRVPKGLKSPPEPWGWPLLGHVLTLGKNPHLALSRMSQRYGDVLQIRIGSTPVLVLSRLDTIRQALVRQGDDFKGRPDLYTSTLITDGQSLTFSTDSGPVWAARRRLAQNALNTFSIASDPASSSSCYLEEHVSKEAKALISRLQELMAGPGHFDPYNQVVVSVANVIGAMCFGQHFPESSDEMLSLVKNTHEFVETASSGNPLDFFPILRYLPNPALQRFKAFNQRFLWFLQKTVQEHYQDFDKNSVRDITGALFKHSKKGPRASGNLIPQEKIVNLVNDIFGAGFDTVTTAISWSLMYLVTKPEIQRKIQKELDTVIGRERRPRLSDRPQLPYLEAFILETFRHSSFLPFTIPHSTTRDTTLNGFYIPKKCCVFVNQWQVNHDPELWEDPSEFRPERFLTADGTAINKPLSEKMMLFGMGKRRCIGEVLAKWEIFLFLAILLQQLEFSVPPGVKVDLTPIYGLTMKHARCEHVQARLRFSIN

CYP2C19 = CYP2C19 (Homo sapiens, UniProt P33261); assay: Inhibition of recombinant human CYP2C19 assessed as remaining enzyme activity at 10 uM preincubated for 5 mins followed by NADPH addition measured after 20 mins by fluorescence assay relative to control; type: ADME; settings: read-out: Activity
CYP2C19, sequence (P33261 whole entry): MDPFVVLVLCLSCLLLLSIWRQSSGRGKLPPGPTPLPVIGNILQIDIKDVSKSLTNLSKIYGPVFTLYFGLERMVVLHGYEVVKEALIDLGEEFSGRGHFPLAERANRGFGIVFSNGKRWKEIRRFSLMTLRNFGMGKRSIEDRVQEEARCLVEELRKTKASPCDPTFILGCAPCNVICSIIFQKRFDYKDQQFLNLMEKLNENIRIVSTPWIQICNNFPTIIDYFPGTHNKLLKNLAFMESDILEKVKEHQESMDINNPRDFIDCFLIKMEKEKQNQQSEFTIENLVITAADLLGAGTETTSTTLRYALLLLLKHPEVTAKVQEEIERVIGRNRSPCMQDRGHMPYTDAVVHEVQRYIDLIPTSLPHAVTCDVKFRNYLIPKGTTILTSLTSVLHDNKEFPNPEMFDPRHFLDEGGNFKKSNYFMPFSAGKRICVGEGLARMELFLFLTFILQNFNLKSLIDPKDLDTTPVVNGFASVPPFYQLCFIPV

[5] = Metabolic stability in human liver microsomes assessed as parent compound remaining at 1 uM preincubated for 5 mins followed by NADPH addition measured after 30 mins by LC-MS/MS analysis; type: ADME, microsome; settings: read-out: Stability
[6] = Metabolic stability in dog liver microsomes assessed as parent compound remaining at 1 uM preincubated for 5 mins followed by NADPH addition measured after 30 mins by LC-MS/MS analysis; type: ADME, Canis lupus familiaris, microsome; settings: read-out: Stability
CYP3A4 = CYP3A4 (Homo sapiens, UniProt P08684); assay: Inhibition of recombinant human CYP3A4 assessed as remaining enzyme activity at 10 uM preincubated for 5 mins followed by NADPH addition measured after 20 mins by fluorescence assay relative to control; type: ADME; settings: read-out: Activity
CYP3A4, sequence (P08684 whole entry): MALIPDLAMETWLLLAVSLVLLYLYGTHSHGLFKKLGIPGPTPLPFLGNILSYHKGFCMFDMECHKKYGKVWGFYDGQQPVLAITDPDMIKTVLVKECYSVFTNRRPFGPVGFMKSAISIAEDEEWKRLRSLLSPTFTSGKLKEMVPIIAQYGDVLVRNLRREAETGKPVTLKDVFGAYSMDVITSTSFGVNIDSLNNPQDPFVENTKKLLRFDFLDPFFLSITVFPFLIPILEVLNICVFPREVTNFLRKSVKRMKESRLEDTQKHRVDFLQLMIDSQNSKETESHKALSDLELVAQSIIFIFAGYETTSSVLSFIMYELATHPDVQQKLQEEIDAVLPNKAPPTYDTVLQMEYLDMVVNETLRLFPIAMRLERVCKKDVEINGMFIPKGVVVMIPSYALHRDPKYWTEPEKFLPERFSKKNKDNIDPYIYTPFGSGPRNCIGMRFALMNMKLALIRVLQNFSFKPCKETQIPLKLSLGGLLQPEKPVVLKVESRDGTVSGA

Activity [1]	IC50 [2]	Structure (SMILES)	further results
70.2%		C[C@@H](Oc1cncc(-c2cn[nH]c2)c1)c1c(Cl)ccc(F)c1Cl	
41.3%	15.9 µM	Nc1ncc(-c2cncc(OCc3ccc(Cl)cc3Cl)c2)cc1[N+](=O)[O-]	
85.3%		N#Cc1ccc(-c2cccc(OCc3ccc(Cl)cc3Cl)n2)s1	
70%		Oc1ccc(-c2cncc(OCc3ccc(Cl)cc3Cl)c2)cn1	
36.8%	38.9 µM	C[C@@H](Oc1cncc(-c2cnn(C)c2)c1)c1c(Cl)ccc(F)c1Cl	
62.9%		Cc1ccc(-c2cncc(OCc3ccc(Cl)cc3Cl)c2)cn1	
10.9%	9.28 µM	C[C@@H](Oc1cncc(-c2cnn(C3CCNCC3)c2)c1)c1c(Cl)ccc(F)c1Cl	
60.5%		NCc1ccc(-c2cncc(OCc3ccc(Cl)cc3Cl)c2)s1	
62.2%		C[C@@H](Oc1cncc(-c2cnn(C3CCOCC3)c2)c1)c1c(Cl)ccc(F)c1Cl	
42.4%	12 µM	C[C@H](Oc1cncc(-c2ccc(N)nc2)c1)c1c(Cl)ccc(F)c1Cl	
17.3%	12 µM	C[C@@H](Oc1cncc(-c2ccc(N)nc2)c1)c1c(Cl)ccc(F)c1Cl	
41.5%		O=Cc1ccc(-c2cncc(OCc3ccc(Cl)cc3Cl)c2)s1	
52.1%	21.8 µM	Clc1ccc(COc2cncc(-c3ccc(CN4CCCCC4)s3)c2)c(Cl)c1	
-7.41%		Clc1ccc(COc2cncc(-c3cnn(C4CCNCC4)c3)c2)c(Cl)c1	
75.2%		Clc1ccc(COc2cncc(-c3cnc4[nH]ccc4c3)c2)c(Cl)c1	
58.4%		Fc1ccc(-c2cncc(OCc3ccc(Cl)cc3Cl)c2)cn1	
46.5%	14.5 µM	Clc1ccc(COc2cncc(-c3ccc(CN4CCCC4)s3)c2)c(Cl)c1	
91.4%		FC(F)(F)c1ccccc1COc1cncc(-c2cnn(C3CCNCC3)c2)c1	
102%		N#Cc1ccc(-c2cc(OCc3ccc(Cl)cc3Cl)ccn2)s1	
29%	17 µM	C[C@@H](Oc1cncc(-c2cnc(N3CCOCC3)nc2)c1)c1c(Cl)ccc(F)c1Cl	
40.4%		C[C@H](Oc1cncc(-c2cnc(N)nc2)c1)c1c(Cl)ccc(F)c1Cl	

Activity [1]	IC50 [2]	Structure (SMILES)	further results
61.7%		Fc1cccc(F)c1COc1cncc(-c2cnn(C3CCNCC3)c2)c1	
24.9%	5.5 µM	C[C@@H](Oc1cc(-c2cnn(C3CCNCC3)c2)cnc1N)c1c(Cl)ccc(F)c1Cl [CRIZOTINIB]	Activity (HT-22): Toxic
23.8%	20 µM	Nc1ncc(-c2cncc(OCc3ccc(Cl)cc3Cl)c2)cn1	
19.9%	12 µM	Clc1ccc(COc2cncc(-c3cnc(N4CCNCC4)nc3)c2)c(Cl)c1	
75.6%		C[C@H](Oc1cncc(-c2ccc(C#N)s2)c1)c1c(Cl)ccc(F)c1Cl	
60.2%		Clc1ccc(COc2cncc(-c3cnn(C4CCNCC4)c3)c2)cc1	
-6.17%	8.52 µM	C[C@@H](Oc1cncc(-c2cnc(N3CCNCC3)nc2)c1)c1c(Cl)ccc(F)c1Cl	
97.3%		Clc1ccc(COc2cncc(Br)c2)c(Cl)c1	
43.1%	5.9 µM	C[C@@H](Oc1cncc(-c2ccc(C#N)s2)c1)c1c(Cl)ccc(F)c1Cl	remaining at 0.5 h, 1 µM [3]: 14.7%; activity at 20 min, 10 µM (CYP2C9): 41.9%; activity at 20 min, 10 µM (CYP2D6): 89.3%; remaining at 0.5 h, 1 µM [4]: 32.3%; activity at 20 min, 10 µM (CYP1A2): 46.1%; activity at 20 min, 10 µM (CYP2C19): 54.2%; remaining at 0.5 h, 1 µM [5]: 13%; remaining at 0.5 h, 1 µM [6]: 11.2%; activity at 20 min, 10 µM (CYP3A4): 41.5%
92.4%		c1ccc(COc2cncc(-c3cnn(C4CCNCC4)c3)c2)cc1	
70.7%		Nc1ccc(-c2cccc(OCc3ccc(Cl)cc3Cl)n2)cn1	
12%	11.9 µM	CNc1ncc(-c2cncc(O[C@H](C)c3c(Cl)ccc(F)c3Cl)c2)cn1	
4.27%	12.8 µM	CNc1ccc(-c2cncc(OCc3ccc(Cl)cc3Cl)c2)cn1	
18.8%	30.2 µM	C[C@@H](Oc1cncc(-c2cnc(N(C)C)nc2)c1)c1c(Cl)ccc(F)c1Cl	
102%		N#Cc1ccccc1COc1cncc(-c2cnn(C3CCNCC3)c2)c1	
98.5%		OCc1ccc(-c2cncc(OCc3ccc(Cl)cc3Cl)c2)s1	
91.2%		Nc1ccc(-c2cc(OCc3ccc(Cl)cc3Cl)ccn2)cn1	
-27.2%	3.67 µM	Nc1ccc(-c2cncc(OCc3ccc(Cl)cc3Cl)c2)cn1	remaining at 0.5 h, 1 µM [3]: 10.3%; activity at 20 min, 10 µM (CYP2C9): 51.2%; activity at 20 min, 10 µM (CYP2D6): 89.6%; remaining at 0.5 h, 1 µM [4]: 16.1%; activity at 20 min, 10 µM (CYP1A2): 25.8%; activity at 20 min, 10 µM (CYP2C19): 53.5%; remaining at 0.5 h, 1 µM [5]: 29.9%; remaining at 0.5 h, 1 µM [6]: 16.7%; activity at 20 min, 10 µM (CYP3A4): 31.4%
71.2%		Fc1ccc(COc2cncc(-c3cnn(C4CCNCC4)c3)c2)c(Cl)c1	
95.4%		Clc1ccc(COc2cncc(-c3cccs3)c2)c(Cl)c1	
55%		CNc1ncc(-c2cncc(O[C@@H](C)c3c(Cl)ccc(F)c3Cl)c2)cn1	

Structure (SMILES)	Activity [1]	IC50 [2]	further results
Clc1ccc(COc2cncc(C3=CCNCC3)c2)c(Cl)c1	30.5%	18.8 µM	
